Laboratory results published in US8158608B2, “Bioactive fraction from Zingier officinale and a process for the preparation thereof” (Council of Scientific and Industrial Research, priority 2006, dated 2012).

How the values were obtained:
[1] = Antioxidant (Aox) potency of identified phenolic acids; settings: for Contribution towards AOX potency of GRAOX: calculated contribution of GRAOX components
Description: The identified phenolic acids were examined for their ability to inhibit proton potassium ATPase activity and their antioxidant potency was also determined.

[2] = target: Proton Potassium ATPase (H+ K+ ATPase) (Ovis aries, UniProt A0ACI6QGK8); experiment: Proton potassium ATPase inhibition (PPI), inorganic phosphate release; assay type: biochemical, sheep; settings: calculated contribution of GRAOX components
Description: Fresh sheep stomach was obtained from local slaughterhouse at Mysore. The mucosa of gastric fundus was cut off and the inner layer were scraped for parietal cells and homogenized in 16 mM Tris buffer (pH 7.4) containing 10% triton-x100 and centrifuged at 6000 rpm for 10 min. The supernatant (enzyme extract) was used for the assay. Protein content was determined according to Brad ford's method using BSA as standard.
Inorganic phosphate formed was measured spectrophotometrically at 400 nm. Enzyme activity was calculated as μ moles of Pi released/hr at various doses of GRAOX and GRPP. […] (FIG. 1, Table. 1)

Chain of Proton Potassium ATPase (H+ K+ ATPase) (A0ACI6QGK8 entry or part of it): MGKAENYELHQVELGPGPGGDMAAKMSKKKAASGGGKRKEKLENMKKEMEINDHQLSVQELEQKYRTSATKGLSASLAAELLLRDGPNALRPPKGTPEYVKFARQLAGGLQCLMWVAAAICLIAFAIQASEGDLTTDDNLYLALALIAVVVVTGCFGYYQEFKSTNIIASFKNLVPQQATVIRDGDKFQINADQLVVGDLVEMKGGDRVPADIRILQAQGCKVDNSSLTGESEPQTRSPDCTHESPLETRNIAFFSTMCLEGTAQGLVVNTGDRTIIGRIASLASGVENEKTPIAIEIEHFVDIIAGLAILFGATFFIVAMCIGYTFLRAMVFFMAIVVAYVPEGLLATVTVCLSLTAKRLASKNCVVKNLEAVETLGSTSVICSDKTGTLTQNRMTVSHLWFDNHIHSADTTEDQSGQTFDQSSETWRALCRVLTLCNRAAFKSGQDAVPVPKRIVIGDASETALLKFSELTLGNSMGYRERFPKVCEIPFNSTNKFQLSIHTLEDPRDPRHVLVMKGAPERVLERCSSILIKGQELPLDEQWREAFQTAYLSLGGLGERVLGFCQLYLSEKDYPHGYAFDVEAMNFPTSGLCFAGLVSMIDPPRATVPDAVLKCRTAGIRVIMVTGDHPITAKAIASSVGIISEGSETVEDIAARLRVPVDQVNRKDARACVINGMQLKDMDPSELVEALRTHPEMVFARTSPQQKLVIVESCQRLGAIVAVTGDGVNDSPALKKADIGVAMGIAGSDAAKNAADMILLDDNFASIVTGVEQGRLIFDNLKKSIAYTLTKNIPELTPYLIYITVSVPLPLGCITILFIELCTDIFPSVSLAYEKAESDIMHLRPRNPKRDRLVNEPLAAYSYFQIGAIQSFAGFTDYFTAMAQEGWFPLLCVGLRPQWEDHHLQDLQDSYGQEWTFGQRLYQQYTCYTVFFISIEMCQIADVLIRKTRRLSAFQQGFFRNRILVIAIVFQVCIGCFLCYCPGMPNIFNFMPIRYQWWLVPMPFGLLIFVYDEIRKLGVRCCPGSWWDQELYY
Chain of Proton Potassium ATPase (H+ K+ ATPase) (A0ACI6PNA7 entry or part of it, further chain): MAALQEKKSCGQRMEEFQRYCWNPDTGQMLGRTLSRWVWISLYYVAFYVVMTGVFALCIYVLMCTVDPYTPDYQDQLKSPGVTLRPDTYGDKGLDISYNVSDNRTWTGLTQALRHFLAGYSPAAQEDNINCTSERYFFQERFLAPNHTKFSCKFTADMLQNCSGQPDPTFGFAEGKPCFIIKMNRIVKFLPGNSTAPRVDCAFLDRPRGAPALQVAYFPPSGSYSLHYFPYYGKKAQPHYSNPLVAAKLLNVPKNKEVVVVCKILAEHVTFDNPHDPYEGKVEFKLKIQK

Row | Molecule | Contribution towards AOX potency of GRAOX [1] [%] | Contribution towards H+K+ ATPase activity of GRAOX [2] [%] | antioxidant potency fold higher than Cinnamic acid ([1]; ratio versus Cinnamic acid) [fold]
1 | O=C(O)C=Cc1ccccc1 [Cinnamic acid] | ~2 | ~90 | –
2 | Gallic acid/Tannic acid | ~92 | ~6 | ~20
